Consider one compound from PMC4179164, “Ophiobolin A from Bipolaris oryzae Perturbs Motility and Membrane Integrities of Porcine Sperm and Induces Cell Death on Mammalian Somatic Cell Lines” (Toxins, 2014).

One series relates to boar spermatozoa. Nature of the series: Cell membrane permeability assay on static sperm cells (PI and calcein-AM staining). It counts as cell-based. The following applies: 24 h, read-out: Toxic endpoint EC50, Permeability to PI on static cells. The protocol:
This phenomenon may indicate that the cell still produce ATP and NADH in the cytoplasm after the OPA treatment, which differs from the effect caused by cation channel forming alamethicin, which depletes the sperm cells from motility, plasma membrane integrity as well as NADH and ATP production at similar concentrations. To confirm the effect of OPA on the plasma membrane permeability, the viability staining with propidium iodide (PI) and calcein-AM was performed after one day incubation at room temperature, (similar conditions as the JC-1 staining) where the EC50 value appeared at 1.6 μg mL^−1, over twice the concentrations that depolarized the mitochondria (Table 1).
Cell membrane permeability assay on motile sperm cells was inspected by staining with PI (Molecular Probes, Eugene, OR, USA) in sperm cells induced to swim by shaking at 37 °C. […] This suspension was incubated for 15 min at 37 °C in dark and measured using a microplate reader (Fluoroskan Ascent, Thermo Scientific, Vantaa, Finland) at excitation and emission wavelengths of 544 nm and 600 nm, respectively. For observing plasma membrane damage by PI staining frozen-thawed semen was used as a positive control (for mortality of 100%) representing the maximal fluorescence emitted by the cells permeable to PI and Dulbeco’s phosphate buffered saline was applied as background control (blank). […]

Series [1] is described as follows: Somatic cell toxicity assay (resazurin reduction), PK-15. The series is classed as cell-based, porcine. Particulars: pig, PK-15 cells (porcine kidney tubular epithelial cell line); read-out: Toxic endpoint EC50, Cytotoxicity, PK-15 cells. As to the method:
(§1) Viability assays, based on resazurin-resorufin transformation, represent excellent correlation to generally used reference assays, such as formazan- and tritiated thymidine based methods. In our experiments, proliferating murine neuroblastoma (MNA), feline fetus lung (FFL) and porcine kidney (PK-15) cells were treated with OPA. […] These values were remarkably less than the concentrations causing sperm toxicity and motility inhibition.
(§2) Cytotoxicity against somatic cells was tested with feline fetus lung cells (FFL) cultivated as described by Andersson et al. and murine neuroblastoma cells (MNA) as described by Kulonen et al. as well as porcine kidney tubular epithelial cell line (PK-15), cultured as reported earlier. All somatic cell lines were maintained in an atmosphere of 95% air, 5% CO2 and 95% relative humidity at 37 °C on RPMI 1640 (complete medium) in a cell culture cabinet (Heracell 150i; Thermo Fisher Scientific, Vantaa, Finland). The detached cells were seeded onto 96 well microtiter plates and exposed to the purified OPA, the final concentration of which ranged from 48.8 ng mL^−1 to 25 μg mL^−1 containing 10 levels in methanol. […] Then, the plates were analyzed by a microtiter plate reader (Fluoroskan Ascent, Thermo Scientific, Vantaa, Finland) at the excitation and emission wavelengths of 544 nm and 590 nm, respectively. […]
For orientation: The colour change of resazurin is a common sign of viable cells or microbes.

In series [2] the test system is porcine kidney (PK-15) cells. The description is as above. Particulars: Sus scrofa; PK-15 cells, resazurin; read-out: IC50, cell proliferation. The series is classed as cell-based. The protocol: as §1, §2
The test system of series [3] is murine neuroblastoma (MNA) cells. Kind of series: Somatic cell toxicity assay (resazurin reduction), MNA. The following applies: Mus musculus, read-out: IC50, cell proliferation. It counts as cell-based. As to the method: as §1, §2
In series [4] the test system is feline fetus lung (FFL) cells. Nature of the series: Somatic cell toxicity assay (resazurin reduction), FFL. The series is classed as cell-based. The following applies: Felis catus, read-out: IC50, cell proliferation. The protocol: as §1, §2
Another series relates to L1210 cell line. The following applies: cited from earlier work.

SMILES strings stand for the structures. Converted amounts (≈) assume the structure as drawn. Bounds are passed on as bounds.

What is called EC50 is the concentration needed to bring the measured effect to its halfway point. For the compound `CC(C)=C[C@H]1C[C@H](C)[C@]2(CC[C@]3(C)C[C@H]4[C@H](C(=O)C[C@@]4(C)O)/C(C=O)=C\C[C@H]32)O1` [OPA, ophiobolin A], the 50% effective concentration (EC50) in the series on boar spermatozoa was 1.6 µg/mL (≈ 3.99 µM). Moreover, the EC50 at 3 days in series [1] was determined as 0.1 µg/mL (≈ 0.25 µM). In addition, the figures for the IC50 in series [2], in series [3] and in series [4] were 0.0488 to 0.0976 µg/mL (≈ 0.122 to 0.244 µM), below 0.0488 µg/mL and 0.0488 µg/mL (≈ 0.122 µM), respectively. Besides, in the series on L1210 cell line, the “IC50, induced cell death” value is 120 µg/mL (≈ 300 µM).
